Data taken from patent US11524000B2, “Targeting Mcl-1 to enhance DNA replication stress sensitivity for cancer therapy” (Emory University, priority 2017, dated 2022).
Each block holds one compound with its values, some of them ahead of it.

Experiments:
[1] = test system: RPA2 foci in WT MEF cells; test: RPA2 foci immunostaining in WT MEF cells (DNA end resection); format: cell-based
Procedure: (§1) HR repair is initiated by DSB end resection that is mediated by the Mre11 complex, whereas Ku tightly bound to DNA ends blocks Mre11 DNA resection. As Mcl-1 negatively regulates Ku function via direct binding, Mcl-1 may reverse the Ku-mediated inhibitory effect on Mre11 complex-mediated DNA end resection. Mre11-Rad50 complex-mediated exonuclease activity was analyzed in the presence of increasing concentrations of Mcl-1 protein using 5′-32P-end-labeled fork DNA as a substrate. […] Ku heterodimer inhibited MR-mediated DNA resection (FIG. 2A, lane 3 vs. lane 2), which was gradually reversed by the addition of increasing concentrations of purified Mcl-1 protein in the presence of a constant amount of Ku protein (FIG. 2A, lane 3 vs. lanes 4-7). BSA was used as control and had no effect on DNA resection. […] In addition, RPA2 is an established reporter of DNA end resection during HR repair in cells. To further test the effect of Mcl-1 on DNA resection in cells, RPA2 foci formation following treatment with Hu, camptothecin (CPT), or IR was compared in WT and Mcl1−/− MEFs. […] RPA2 phosphorylation at Ser4 and Ser8 was analyzed by Western blot using the S4/S8 dual-site phosphospecific RPA2 antibody following exposure of MEF WT or MEF Mcl1−/− cells to IR, CPT, and Hu. […]

[2] = test system: RPA2 phosphorylation at Ser4 and Ser8; test: RPA2 Ser4/Ser8 phosphorylation by Western blot in MEF cells; format: cell-based
Procedure: as §1

[3] = test system: H1299 cells; test: Cell cycle analysis of H1299 cells during replication stress time course; format: cell-based
Procedure: (§2) To test whether replication stress affects the Mcl-1/Ku interaction, time course experiments were carried out. H1299 cells were treated with Hu or olaparib for various times (0, 0.5, 1, 2, 8, or 24 hours). The Mcl-1/Ku interaction and cell cycle were analyzed simultaneously at each time point. […] These findings indicate that, in addition to S/G2 cell cycle phase, Hu- or olaparib-induced DNA replication stress can also promote Mcl-1/Ku interaction.

[4] = test system: Rad51 foci in H1299 cells; test: Rad51 foci immunostaining in H1299 cells; format: cell-based; conditions: for induction of Rad51 foci: single agent
Procedure: Rad51 foci were quantified by counting of at least 100 cells from each sample.
(§3) To test whether inhibition of HR by MI-223 sensitizes cancer cells to DNA replication stress, H1299 cells were treated with olaparib or Hu in the absence or presence of MI-223, followed by analysis of Rad51 foci and clonogenic survival. […] Importantly, MI-223 suppression of HR DNA repair activity synergizes with olaparib or Hu to kill H1299 lung cancer cells (FIG. 4H).

[5] = biological target: T1, Mcl-1/Ku complex (Homo sapiens, UniProt Q07820); test: Co-IP of Mcl-1/Ku interaction in H1299 cells; format: cell-based; conditions: for Mcl-1/Ku interaction: time course 0, 0.5, 1, 2, 8, or 24 hours
T1 construct: endogenous in cells; host or cells: H1299
T1 sequence (Q07820 whole entry, one chain of several): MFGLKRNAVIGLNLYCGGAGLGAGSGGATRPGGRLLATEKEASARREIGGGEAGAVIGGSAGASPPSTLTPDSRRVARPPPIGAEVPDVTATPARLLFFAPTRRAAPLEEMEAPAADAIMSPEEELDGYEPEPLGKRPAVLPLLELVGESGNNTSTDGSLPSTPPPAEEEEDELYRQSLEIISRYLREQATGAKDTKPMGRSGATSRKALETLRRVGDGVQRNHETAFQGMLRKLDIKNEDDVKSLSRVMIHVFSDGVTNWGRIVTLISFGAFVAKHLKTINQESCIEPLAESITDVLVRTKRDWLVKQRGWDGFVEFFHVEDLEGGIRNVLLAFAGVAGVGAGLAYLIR
Procedure: as §2
(§4) To assess whether Mcl-1 is essential for the effect of MI-223 on HR activity, Mcl-1 was knocked out from H1299 cells using CRISPR/Cas9 to generate Mcl-1-deficient cells. WT Mcl-1, Ku binding-deficient mutant ΔBH1, and empty vector control were exogenously expressed in Mcl-1-knockout H1299 (Mcl1−/− H1299) cells, followed by treatment with MI-223 for 24 hours and analysis of HR efficacy. […] Intriguingly, expression of exogenous WT Mcl-1 but not the Ku binding-deficient ΔBH1 Mcl-1 mutant in Mcl-1-deficient H1299 cells restored the inhibitory effect of MI-223 on HR activity.

[6] = biological target: Mcl-1 (Homo sapiens, UniProt Q07820); test: Fluorescence polarization (FP) assay with fluorescence-labeled PUMA BH3 peptide; conditions: read-out: inhibitory constant (KI) of MI-223/Mcl-1 binding
Sequence of Mcl-1 (Q07820 whole entry): as the sequence (Q07820 whole entry, one chain of several) above
Procedure: (§5) To confirm the binding of MI-223 with Mcl-1, isothermal titration calorimetry (ITC) was used to measure MI-223/Mcl-1 binding. ITC is a direct, label- and immobilization-free technique that measures the binding affinity between proteins and small-molecule ligands that interact with each other, and can analyze binding constant (KD) values in the millimolar and nanomolar range. ITC experiments were performed to assess MI-223/Mcl-1 binding using an auto-iTC200 instrument. […] In addition to the binding constant (KD) value measured by ITC, we also used fluorescence polarization (FP) to measure the inhibitory constant (KI) value using a fluorescence-labeled PUMA BH3 peptide. The PUMA BH3 peptide was chose for this FP assay to evaluate Mcl-1/MI-223 binding because it has been reported to bind specifically to the […] of Mcl-1. […] Based on findings from both ITC (i.e., KD) and FP (i.e., KI), we conclude that MI-223 may directly bind to Mcl-1 with good affinity.

[7] = test system: HR efficacy in Mcl-1-deficient H1299 cells; test: HR efficacy in Mcl-1-knockout H1299 cells; format: cell-based; conditions: 24 hours
Procedure: as §4

[8] = biological target: T2, BH1 deletion Mcl-1 mutant protein (ΔBH1) (Homo sapiens, UniProt Q07820, DEL256-265); test: Isothermal titration calorimetry (ITC), BH1 deletion mutant; format: binding; conditions: ITC assay
T2 construct: made in house
T2 sequence (Q07820 with tags, fused parts or gaps DEL256-265): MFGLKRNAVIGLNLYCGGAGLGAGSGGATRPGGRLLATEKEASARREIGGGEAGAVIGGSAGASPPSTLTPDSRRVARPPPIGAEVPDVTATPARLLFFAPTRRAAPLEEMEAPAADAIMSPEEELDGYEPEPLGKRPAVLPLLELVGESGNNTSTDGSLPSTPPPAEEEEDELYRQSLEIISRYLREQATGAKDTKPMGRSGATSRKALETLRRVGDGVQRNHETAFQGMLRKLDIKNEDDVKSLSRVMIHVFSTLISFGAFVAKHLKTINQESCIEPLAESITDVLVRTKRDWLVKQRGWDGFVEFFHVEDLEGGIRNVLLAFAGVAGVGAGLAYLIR
Procedure: (§6) The binding constant (KD) value was determined by fitting of the titration curve to a 1-site binding mode
as §5

[9] = test system: H1299 lung cancer cells; test: Colony formation assay (clonogenic survival) in H1299 cells; format: cell-based
Procedure: as §3

[10] = Toxicity evaluation in treated xenograft mice (weight, blood chemistry, blood counts, histopathology); format: in vivo
[11] = test system: H1299 lung cancer xenografts; test: H1299 lung cancer xenograft tumor growth in nude mice; format: in vivo; conditions: for suppression of lung tumor growth: vs single agent; for repression of lung cancer in vivo (tumor volume): single agent, 0, 20, 40, 80 and 120 mg/kg/day for 30 days
Procedure: Nu/Nu nude mice with H1299 lung cancer xenografts were treated with increasing doses of MI-223 (0, 20, 40, 80 and 120 mg/kg/day) for 30 days (n=8 mice per group). Tumor volume was measured once every 2 days. After 30 days, the mice were sacrificed, and the tumors were removed and analyzed. […]

[12] = biological target: WT Mcl-1 protein (Homo sapiens, UniProt Q07820); test: Isothermal titration calorimetry (ITC), MI-223/Mcl-1 binding; conditions: 1-site binding mode, read-out: binding constant (KD)
Sequence of WT Mcl-1 protein (Q07820 whole entry): as the sequence (Q07820 whole entry, one chain of several) above
Procedure: as §6, §5

[13] = test system: H1299 cells; test: Annexin V binding assay; format: cell-based
[14] = test system: H1299 lung cancer xenografts; test: IHC staining of Ki-67 and γ-H2AX in xenograft tumor tissues; format: in vivo, mice
[15] = test system: HR activity in U2OS DR-GFP cells; test: HR repair efficiency in U2OS DR-GFP cells; format: cell-based; conditions: dose-dependent
[16] = test system: HR activity in H1299 DR-GFP cells; test: HR repair efficiency in H1299 DR-GFP cells; format: cell-based
[17] = mice treated with MI-223 alone or in combination with olaparib or Hu
[18] = MI-223 in combination with Hu, compared with Hu alone
[19] = MI-223 in combination with olaparib, compared with olaparib alone

SMILES: CC[C@@]1(O)C(=O)OCc2c1cc1n(c2=O)Cc2cc3ccccc3nc2-1 [CPT, camptothecin]
- RPA2 foci formation ([1]; CPT 1 μM for 1 hour): induced RPA2 foci formation
- RPA2 phosphorylation at S4 and S8 ([2]; CPT 1 μM for 1 hour): stimulated RPA2 phosphorylation

- Mcl-1/Ku interaction [5]: increased at 2, 8, and 24 hours
SMILES: O=C(c1cc(Cc2n[nH]c(=O)c3ccccc23)ccc1F)N1CCN(C(=O)C2CC2)CC1 [olaparib]
- percentage of S phase cells ([3]; time points tested): did not significantly affect
- induction of Rad51 foci [4]: induced Rad51 foci

- Ki [6]: 0.193 ± 0.0043 µM
- binding to ΔBH1 Mcl-1 mutant protein [8]: failed to bind
- Kd [12]: 0.161 ± 0.007 µM
- disruption of Mcl-1/Ku complex ([5]; increasing concentrations, 24 hours, co-IP with Mcl-1 antibody): disrupted the Mcl-1/Ku complex
SMILES: CCOC1=CC=CC(=CNn2c(-c3ccccc3Cl)nc3ccccc3c2=O)C1=O [MI-223, 2-(2-chlorophenyl)-3-(((5-ethoxy-6-oxocyclohexa-2,4-dien-1-ylidene)methyl)amino)quinazolin-4(3H)-one]
- HR efficacy [7]: no significant further effect
- inhibition of Rad51 foci formation ([4]; olaparib- or Hu-induced foci, MI-223 4 μM, 24 hours): strongly inhibited Rad51 foci formation
- synergy in cell killing (colony formation) ([9]; MI-223 in combination with Hu): synergizes
- synergy in cell killing (colony formation) ([9]; MI-223 in combination with olaparib): synergizes
- histopathologic evaluation of normal tissues ([10]; brain, heart, lung, liver, spleen, kidney, and intestine): no evidence of normal tissue toxicity
- increase in alanine transaminase, aspartate transaminase, or blood urea nitrogen [10, 17]: no significant
- reduction in wbcs, rbcs, hemoglobin, or platelets [10, 17]: no significant
- weight loss [10, 17]: no significant weight loss
- suppression of lung tumor growth ([11]; MI-223 40 mg/kg/d in combination with Hu 500 mg/kg): significantly greater efficacy than a single agent alone
- suppression of lung tumor growth ([11]; MI-223 40 mg/kg/d in combination with olaparib 40 mg/kg/d, 3 weeks): significantly greater efficacy than a single agent alone
- repression of lung cancer in vivo (tumor volume) [11]: potently represses lung cancer in vivo
- apoptotic cell death [13]: did not induce significant apoptotic cell death
- Ki-67 in tumor tissues [14, 18]: significant reduction of Ki-67
- γ-H2AX in tumor tissues [14, 18]: increased levels of γ-H2AX
- Ki-67 in tumor tissues [14, 19]: significant reduction of Ki-67
- γ-H2AX in tumor tissues [14, 19]: increased levels of γ-H2AX
- HR activity [15]: potently inhibited HR activity
- HR activity ([16]; H1299 DR-GFP cells, dose-dependent): potently inhibited HR activity
- HR efficacy ([16]; H1299 parental cells, 24 hours): dose-dependent reduction of HR efficacy

SMILES: O=C1C=CC=CC1=CNNc1nnc(NNC=C2C=CC=CC2=O)c2ccccc12 [MI-647, 6,6′-((phthalazine-1,4-diylbis(hydrazine-2,1-diyl))bis(methanylylidene))bis(cyclohexa-2,4-dien-1-one)]
- repression of lung cancer in vivo (tumor volume) [11]: potently represses lung cancer in vivo

SMILES: Cc1ccc(C)c(NC(=O)C(=O)C(C(=O)c2ccc3ccccc3c2)C2OC(=O)c3ccccc32)c1 (stereo not shown) [MI-985, N-(2,5-dimethylphenyl)-4-(naphthalen-2-yl)-2,4-dioxo-3-(3-oxo-1,3-dihydroisobenzofuran-1-yl)butanamide]
- repression of lung cancer in vivo (tumor volume) [11]: potently represses lung cancer in vivo

SMILES: O=[N+]([O-])c1ccccc1C=NNC(=S)NN=Cc1ccccc1[N+](=O)[O-] [MI-361, N′-(2-nitrobenzylidene)-2-(2-nitrobenzylidene)hydrazine-1-carbothiohydrazide]
- repression of lung cancer in vivo (tumor volume) [11]: potently represses lung cancer in vivo

- Mcl-1/Ku interaction [5]: increased at 2, 8, and 24 hours
SMILES: NC(=O)NO [Hu, hydroxyurea]
- RPA2 foci formation ([1]; Hu 0.2 mM for 24 hours): induced RPA2 foci formation
- percentage of cells in S phase ([3]; 24-hour time point): enhanced
- percentage of cells in S phase ([3]; short time points (2 and 8 hours)): did not alter
- induction of Rad51 foci [4]: induced Rad51 foci
- RPA2 phosphorylation at S4 and S8 ([2]; Hu 0.2 mM for 24 hours): stimulated RPA2 phosphorylation
